# Experimental data published in patent US20130012466A1 (priority 2006, published 2013).
# Where two headings read alike, the source gives them in different places.
# Assays:
# [1] = system: Hep3B; assay: Cytotoxicity assay (cell titer-glo and calcein AM), Hep3B; conditions: Hep 3B, % error in parentheses
# [2] = system: A549; assay: Cytotoxicity assay (cell titer-glo and calcein AM), A549; conditions: A549, % error in parentheses
# [3] = system: mouse mammary normal epithelial control cell line; assay: Cytotoxicity assay, normal control cell line
# [4] = system: NCI-H460; assay: Cytotoxicity assay (cell titer-glo and calcein AM), NCI-H460; conditions: NCI-H460, % error in parentheses
# [5] = system: SF-268; assay: Cytotoxicity assay (cell titer-glo and calcein AM), SF-268; conditions: SF-268, % error in parentheses
# [6] = system: MCF7; assay: Cytotoxicity assay (cell titer-glo and calcein AM), MCF7
# [7] = system: SK-OV-3; assay: Cytotoxicity assay (cell titer-glo and calcein AM), SK-OV-3; conditions: SK-OV-3, % error in parentheses
# [8] = system: Du145; assay: Cytotoxicity assay (cell titer-glo and calcein AM), Du145; conditions: Du145, % error in parentheses
# [9] = system: ADR-RES; assay: Cytotoxicity assay (cell titer-glo and calcein AM), ADR-RES; conditions: NCI/ADR RES, % error in parentheses
# [10] = read-out: Cytotoxicity IC50, Hep 3B, CTG, CTG (cell titer-glo) readout
# [11] = read-out: Cytotoxicity IC50, Hep 3B, calcein, calcein AM readout
# [12] = read-out: Cytotoxicity IC50, A549, CTG, CTG (cell titer-glo) readout
# [13] = read-out: Cytotoxicity IC50, A549, calcein, calcein AM readout
# [14] = read-out: Cytotoxicity IC50, NmuMG, CTG, CTG (cell titer-glo) readout, % error in parentheses
# [15] = read-out: Cytotoxicity IC50, NmuMG, calcein, calcein AM readout, % error in parentheses
# [16] = read-out: Cytotoxicity IC50, NCI-H460, CTG, CTG (cell titer-glo) readout
# [17] = read-out: Cytotoxicity IC50, NCI-H460, calcein, calcein AM readout
# [18] = read-out: Cytotoxicity IC50, SF-268, CTG, CTG (cell titer-glo) readout
# [19] = read-out: Cytotoxicity IC50, SF-268, calcein, calcein AM readout
# [20] = read-out: Cytotoxicity IC50, MCF7, CTG, CTG (cell titer-glo) readout, % error in parentheses
# [21] = read-out: Cytotoxicity IC50, MCF7, calcein, calcein AM readout, % error in parentheses
# [22] = read-out: Cytotoxicity IC50, SK-OV-3, CTG, CTG (cell titer-glo) readout
# [23] = read-out: Cytotoxicity IC50, SK-OV-3, calcein, calcein AM readout
# [24] = read-out: Cytotoxicity IC50, Du145, CTG, CTG (cell titer-glo) readout
# [25] = read-out: Cytotoxicity IC50, Du145, calcein, calcein AM readout
# [26] = read-out: Cytotoxicity IC50, NCI/ADR RES, CTG, CTG (cell titer-glo) readout
# [27] = read-out: Cytotoxicity IC50, NCI/ADR RES, calcein, calcein AM readout
Compound,"IC50 [1, 10] [µM]","IC50 [1, 11] [µM]","IC50 [2, 12] [µM]","IC50 [2, 13] [µM]","IC50 [3, 14] [µM]","IC50 [3, 15] [µM]","IC50 [4, 16] [µM]","IC50 [4, 17] [µM]","IC50 [5, 18] [µM]","IC50 [5, 19] [µM]","IC50 [6, 20] [µM]","IC50 [6, 21] [µM]","IC50 [7, 22] [µM]","IC50 [7, 23] [µM]","IC50 [8, 24] [µM]","IC50 [8, 25] [µM]","IC50 [9, 26] [µM]","IC50 [9, 27] [µM]"
"COc1cc2c(c(OC)c1OC)-c1ccc(OC)c(=O)cc1C(NC(=O)CN(OC)C1OCC(O)C(O)C1O)CC2 [Col25, L-arabinoside]",> 10,> 10,5.02,5.26,5.7,> 10,4.41,5.78,6.8,4.46,3.02,3.43,8.51,2.51,7.4,> 10,5.14,5.53
"COc1cc2c(c(OC)c1OC)-c1ccc(OC)c(=O)cc1[C@@H](NC(=O)CN(OC)[C@@H]1O[C@H](CO)[C@H](O)[C@H](O)[C@H]1NC(C)=O)CC2 [Col28, N-acetyl-D-galactosaminoside]",,> 10,> 10,> 10,> 10,9.57,9.76,> 10,5.7,3.56,4.87,6.67,5.18,7.32,> 10,> 10,9.95,> 10
"COc1cc2c(c(OC)c1OC)-c1ccc(OC)c(=O)cc1[C@@H](NC(=O)CN(OC)[C@@H]1O[C@H](CO)[C@@H](O)[C@H](F)[C@H]1O)CC2 [Col33, 3-fluoro-3-deoxy-D-glucoside]",2.67,1.99,2.02,1.87,5.93,> 10,4.39,> 10,0.86,2.33,6.64,6.13,1.25,1.89,9.6,5.44,> 10,> 10
"COc1cc2c(c(OC)c1OC)-c1ccc(OC)c(=O)cc1C(NC(=O)CN(OC)C1OC(C)C(O)C(O)C1O)CC2 [Col37, L-rhamnoside]",8.26,9.57,7.07,7.28,7.72,7.76,3.72,6.7,4.79,4.68,3.81,1.56,5.58,> 10,5.81,4.36,4.56,4.48
"COc1cc2c(c(OC)c1OC)-c1ccc(OC)c(=O)cc1[C@@H](NC(=O)CN(OC)[C@@H]1O[C@H](CCl)[C@H](O)[C@H](O)[C@H]1O)CC2 [Col41, 6-deoxy-6-chloro-D-galactoside]",8.8,5.99,3.7,1.07,> 10,9.27,5.48,2.31,6.93,7.87,3.36,1.85,5.61,7.95,6.69,6.74,4.97,3.68
"COc1cc2c(c(OC)c1OC)-c1ccc(OC)c(=O)cc1[C@@H](NC(=O)CN(OC)[C@@H]1O[C@H](CBr)[C@H](O)[C@H](O)[C@H]1O)CC2 [Col42, 6-deoxy-6-bromo-D-galactoside]",> 10,> 10,3.94,2.64,2.83,2.92,4.4,> 10,6.37,3.31,4.9,3.69,8.36,> 10,4.47,4.26,2.49,2.23
"COc1cc2c(c(OC)c1OC)-c1ccc(OC)c(=O)cc1[C@@H](NC(=O)CN(OC)[C@@H]1O[C@H](CN=[N+]=[N-])[C@H](O)[C@H](O)[C@H]1O)CC2 [Col43, 6-deoxy-6-azido-D-galactoside]",5.3,3.89,> 10,> 10,3.82,3.93,5.01,2.36,5.15,8.46,4.91,3.68,> 10,5.79,4.87,4.19,5.04,2.51
"COc1cc2c(c(OC)c1OC)-c1ccc(OC)c(=O)cc1[C@@H](NC(=O)CN(OC)[C@@H]1O[C@H](CF)[C@@H](O)[C@H](O)[C@H]1O)CC2 [Col54, 6-deoxy-6-fluoro-D-glucoside]",> 10,4.66,> 10,> 10,> 10,> 10,3.82,4.9,> 10,> 10,> 10,> 10,> 10,> 10,> 10,> 10,> 10,> 10
"CCCCCCCCCC(=O)NC[C@H]1O[C@@H](N(CC(=O)N[C@H]2CCc3cc(OC)c(OC)c(OC)c3-c3ccc(OC)c(=O)cc32)OC)[C@H](O)[C@@H](O)[C@@H]1O [Col59, 6-deoxy-6-N-decanoyl-D-glucosaminoside]",5.7,7.36,8.14,> 10,> 10,8.43,4.95,5.21,5.53,9.44,5.51,6.19,5.08,7.11,5.28,7.09,5.16,7.97
"CCCCCCCCCC(=O)N[C@@H]1[C@@H](O)[C@H](N(CC(=O)N[C@H]2CCc3cc(OC)c(OC)c(OC)c3-c3ccc(OC)c(=O)cc32)OC)O[C@H](CO)[C@H]1O [Col60, 3-deoxy-3-N-decanoyl-D-glucosaminoside]",4.97,> 10,> 10,> 10,8.37,6.04,3.98,5.88,5.03,4.13,3.36,3.04,4.38,4.15,4.79,6.2,4.98,4.65
"COc1cc2c(c(OC)c1OC)-c1ccc(OC)c(=O)cc1[C@@H](NC(=O)CN(OC)[C@@H]1O[C@H](CSC(C)=O)[C@H](O)[C@H](O)[C@H]1O)CC2 [Col68, 6-deoxy-6-thio-acyl-D-galactoside]",5.22,7.92,4.77,7.67,9.83,9.44,4.41,3.12,3.85,3.27,2.42,2.54,4.5,2.43,4.19,1.73,4.88,2.04
mycaroside [Col49],9.76,> 10,> 10,> 10,> 10,8.84,≥ 10,9.31,9.94,7.86,4.38,5.21,> 10,> 10,5.2,8.56,5.38,> 10
